Measured values reported in ChEMBL document CHEMBL4177611, “Discovery of aminocyclohexene analogues as selective and orally bioavailable hNav1.7 inhibitors for analgesia” (Bioorg Med Chem Lett, 2017).

Columns and labels:
[1] = Fraction unbound in human plasma at 2 uM after 4 hrs by LC-MS/MS analysis; type: ADME, cell-free
[2] = molecular target: Sodium channel protein type 9 subunit alpha (Homo sapiens, UniProt Q15858); assay: Inhibition of human Nav1.7 expressed in CHO-K1 cells at -120 mV holding potential incubated over 5 mins measured at 15 secs interval by Qpatch clamp assay; type: cell-based
Sequence of Sodium channel protein type 9 subunit alpha (Q15858 whole entry): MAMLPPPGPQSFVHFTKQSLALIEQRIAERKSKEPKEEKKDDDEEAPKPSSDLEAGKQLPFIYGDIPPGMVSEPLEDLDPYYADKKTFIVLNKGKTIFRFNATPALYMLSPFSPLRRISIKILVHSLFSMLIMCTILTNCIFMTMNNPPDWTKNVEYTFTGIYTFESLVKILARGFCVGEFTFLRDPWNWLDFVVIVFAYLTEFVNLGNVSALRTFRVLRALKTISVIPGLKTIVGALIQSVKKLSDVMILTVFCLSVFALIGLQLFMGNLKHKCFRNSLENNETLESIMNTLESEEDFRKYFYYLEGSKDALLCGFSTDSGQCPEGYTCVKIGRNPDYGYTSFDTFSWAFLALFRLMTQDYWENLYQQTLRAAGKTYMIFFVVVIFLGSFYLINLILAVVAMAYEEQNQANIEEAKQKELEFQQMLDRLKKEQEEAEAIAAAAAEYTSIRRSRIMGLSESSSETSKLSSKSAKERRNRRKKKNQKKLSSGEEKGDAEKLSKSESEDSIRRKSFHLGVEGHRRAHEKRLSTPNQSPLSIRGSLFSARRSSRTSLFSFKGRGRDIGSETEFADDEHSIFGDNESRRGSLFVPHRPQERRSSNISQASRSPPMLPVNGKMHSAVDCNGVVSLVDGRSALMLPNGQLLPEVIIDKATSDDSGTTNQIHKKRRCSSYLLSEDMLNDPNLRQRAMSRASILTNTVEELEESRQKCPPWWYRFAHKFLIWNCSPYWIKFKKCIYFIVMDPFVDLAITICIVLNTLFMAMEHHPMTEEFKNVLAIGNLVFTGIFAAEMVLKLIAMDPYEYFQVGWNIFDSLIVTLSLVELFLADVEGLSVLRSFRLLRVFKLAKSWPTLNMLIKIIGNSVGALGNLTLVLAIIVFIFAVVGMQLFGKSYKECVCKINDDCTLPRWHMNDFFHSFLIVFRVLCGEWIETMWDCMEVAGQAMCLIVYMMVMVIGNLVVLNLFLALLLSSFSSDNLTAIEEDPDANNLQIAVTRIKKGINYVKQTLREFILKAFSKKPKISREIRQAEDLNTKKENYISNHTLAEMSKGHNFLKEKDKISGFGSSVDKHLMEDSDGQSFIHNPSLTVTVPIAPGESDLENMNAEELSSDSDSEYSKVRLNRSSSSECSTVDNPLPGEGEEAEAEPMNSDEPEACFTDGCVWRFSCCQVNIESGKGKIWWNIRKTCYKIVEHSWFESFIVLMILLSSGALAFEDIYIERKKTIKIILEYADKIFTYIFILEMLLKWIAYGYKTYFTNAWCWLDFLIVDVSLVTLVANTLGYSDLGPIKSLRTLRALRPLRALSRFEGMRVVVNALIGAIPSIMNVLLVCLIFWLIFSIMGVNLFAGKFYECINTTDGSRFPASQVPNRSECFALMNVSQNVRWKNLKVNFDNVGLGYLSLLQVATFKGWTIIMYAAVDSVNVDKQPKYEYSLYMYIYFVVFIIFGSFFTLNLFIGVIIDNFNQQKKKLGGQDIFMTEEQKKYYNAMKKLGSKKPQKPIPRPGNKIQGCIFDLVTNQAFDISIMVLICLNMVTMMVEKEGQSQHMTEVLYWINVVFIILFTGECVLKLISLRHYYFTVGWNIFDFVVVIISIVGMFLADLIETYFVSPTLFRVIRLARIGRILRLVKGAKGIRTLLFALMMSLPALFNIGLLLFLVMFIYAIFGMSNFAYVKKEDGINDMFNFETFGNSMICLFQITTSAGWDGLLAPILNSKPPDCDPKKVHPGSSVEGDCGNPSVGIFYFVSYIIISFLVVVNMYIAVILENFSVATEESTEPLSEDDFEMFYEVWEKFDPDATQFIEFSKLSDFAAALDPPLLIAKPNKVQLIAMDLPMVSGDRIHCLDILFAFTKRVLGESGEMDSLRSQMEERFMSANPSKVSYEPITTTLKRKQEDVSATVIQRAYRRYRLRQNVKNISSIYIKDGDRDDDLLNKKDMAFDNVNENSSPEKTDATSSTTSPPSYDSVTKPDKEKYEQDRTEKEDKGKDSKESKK

[3] = AUC (0 to last) in Sprague-Dawley rat at 10 mg/kg administered as single dose via oral gavage by LC-MS/MS analysis; type: ADME, organism-based; design: dose 10 mg/kg, route oral, time 0 - last; details: in vivo
[4] = Oral bioavailability in Sprague-Dawley rat at 10 mg/kg administered as single dose via gavage by LC-MS/MS analysis; type: ADME, organism-based; details: in vivo
[5] = Plasma concentration in Sprague-Dawley rat spinal nerve ligation model at 30 mg/kg administered as single dose via oral gavage measured after 1 hr by LC-MS/MS analysis; type: ADME, organism-based
[6] = Volume of distribution at steady state in Sprague-Dawley rat at 3 mg/kg administered as single iv bolus by LC-MS/MS analysis; type: ADME, organism-based; details: in vivo, read-out: Vdss
[7] = Unbound plasma concentration in Sprague-Dawley rat spinal nerve ligation model at 30 mg/kg administered as single dose via oral gavage measured after 1 hr by LC-MS/MS analysis; type: ADME, organism-based; details: in vivo
[8] = Plasma concentration in Sprague-Dawley rat spinal nerve ligation model at 100 mg/kg administered as single dose via oral gavage measured after 2 hrs by LC-MS/MS analysis; type: ADME, organism-based
[9] = Drug uptake in Sprague-Dawley rat dorsal root ganglion at 100 mg/kg, ig measured after 1.5 hrs by LC-MS/MS analysis; type: ADME, organism-based; details: in vivo, po
[10] = molecular target: Sodium channel protein type 4 subunit alpha (Homo sapiens, UniProt P35499); type: ADME
Sequence of Sodium channel protein type 4 subunit alpha (P35499 whole entry): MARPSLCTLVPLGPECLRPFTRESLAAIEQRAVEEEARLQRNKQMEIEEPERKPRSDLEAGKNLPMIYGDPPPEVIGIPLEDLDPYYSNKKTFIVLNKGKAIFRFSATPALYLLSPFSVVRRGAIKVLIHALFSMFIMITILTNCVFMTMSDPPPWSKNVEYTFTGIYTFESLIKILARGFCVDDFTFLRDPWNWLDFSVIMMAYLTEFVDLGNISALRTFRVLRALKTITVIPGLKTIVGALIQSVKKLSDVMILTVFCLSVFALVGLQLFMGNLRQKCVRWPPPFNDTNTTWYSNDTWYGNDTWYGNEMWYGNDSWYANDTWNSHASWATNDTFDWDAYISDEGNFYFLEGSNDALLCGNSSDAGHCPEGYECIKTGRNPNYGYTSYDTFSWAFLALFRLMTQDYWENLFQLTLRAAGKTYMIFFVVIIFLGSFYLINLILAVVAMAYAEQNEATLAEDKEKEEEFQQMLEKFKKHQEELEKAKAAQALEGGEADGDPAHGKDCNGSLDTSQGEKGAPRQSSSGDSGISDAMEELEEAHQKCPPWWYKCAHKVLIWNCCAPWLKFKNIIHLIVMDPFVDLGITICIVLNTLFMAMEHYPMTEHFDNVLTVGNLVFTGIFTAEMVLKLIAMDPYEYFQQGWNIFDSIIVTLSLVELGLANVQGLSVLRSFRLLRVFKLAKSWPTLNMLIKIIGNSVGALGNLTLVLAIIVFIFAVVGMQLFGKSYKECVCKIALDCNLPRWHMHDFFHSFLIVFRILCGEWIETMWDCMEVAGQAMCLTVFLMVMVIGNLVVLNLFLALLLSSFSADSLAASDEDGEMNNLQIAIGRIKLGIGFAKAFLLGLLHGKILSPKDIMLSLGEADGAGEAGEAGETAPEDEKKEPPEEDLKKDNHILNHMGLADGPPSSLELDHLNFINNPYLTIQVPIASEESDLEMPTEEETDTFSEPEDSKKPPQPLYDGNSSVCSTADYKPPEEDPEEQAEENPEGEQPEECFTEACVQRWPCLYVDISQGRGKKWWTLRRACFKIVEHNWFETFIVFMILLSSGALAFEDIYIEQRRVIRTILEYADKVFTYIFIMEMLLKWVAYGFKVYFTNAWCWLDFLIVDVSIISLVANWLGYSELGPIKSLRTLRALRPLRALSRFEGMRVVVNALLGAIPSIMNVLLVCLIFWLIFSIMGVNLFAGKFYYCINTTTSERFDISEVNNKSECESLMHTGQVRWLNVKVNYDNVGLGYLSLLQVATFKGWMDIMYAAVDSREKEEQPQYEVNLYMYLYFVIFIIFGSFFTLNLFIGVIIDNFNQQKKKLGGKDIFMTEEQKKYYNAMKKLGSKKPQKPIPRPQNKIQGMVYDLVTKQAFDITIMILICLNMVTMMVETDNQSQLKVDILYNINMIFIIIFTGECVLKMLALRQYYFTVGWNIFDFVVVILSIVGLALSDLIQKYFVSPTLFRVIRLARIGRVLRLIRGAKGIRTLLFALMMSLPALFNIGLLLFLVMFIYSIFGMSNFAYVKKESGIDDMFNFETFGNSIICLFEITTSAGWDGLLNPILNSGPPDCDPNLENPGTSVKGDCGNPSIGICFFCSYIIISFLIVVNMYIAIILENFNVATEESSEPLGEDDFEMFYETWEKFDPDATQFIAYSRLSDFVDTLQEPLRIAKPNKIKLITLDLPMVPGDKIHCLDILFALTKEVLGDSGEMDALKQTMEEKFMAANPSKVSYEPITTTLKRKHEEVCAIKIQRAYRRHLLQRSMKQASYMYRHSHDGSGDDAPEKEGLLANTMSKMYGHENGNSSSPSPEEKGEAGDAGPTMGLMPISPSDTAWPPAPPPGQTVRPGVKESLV

[11] = Half life in Sprague-Dawley rat at 3 mg/kg administered as single iv bolus by LC-MS/MS analysis; type: ADME, organism-based; details: in vivo
[12] = Unbound plasma concentration in Sprague-Dawley rat spinal nerve ligation model at 100 mg/kg administered as single dose via oral gavage measured after 1 hr by LC-MS/MS analysis; type: ADME, organism-based; details: in vivo
[13] = Unbound plasma concentration in Sprague-Dawley rat spinal nerve ligation model at 30 mg/kg administered as single dose via oral gavage measured after 4 hrs by LC-MS/MS analysis; type: ADME, organism-based; details: in vivo
[14] = Clearance in Sprague-Dawley rat at 3 mg/kg administered as single iv bolus by LC-MS/MS analysis; type: ADME, organism-based; details: in vivo
[15] = Plasma concentration in Sprague-Dawley rat spinal nerve ligation model at 100 mg/kg administered as single dose via oral gavage measured after 4 hrs by LC-MS/MS analysis; type: ADME, organism-based

- fraction unbound at 4 h, 2 µM [1]: 0.015
- IC50 [2]: 34 nM
- AUC(0-t) [3]: 3.04 µM·h
- bioavailability [4]: 37%
- concentration at 1 h [5]: 2010 nM
- Vd [6]: 4.63 L/kg
- Cp(f) [7]: 70 nM
- concentration at 2 h [8]: 7.5 µM
- Drug uptake [9]: 2.6 µM/g
- IC50 [10]: 25.2 µM
- half-life [11]: 93.6 min
- Cp(f) [12]: 297 nM
- Cp(f) [13]: 54 nM
- clearance [14]: 37 mL/min/kg
- concentration at 4 h [15]: 4.64 µM
Compound: CCN[C@@H]1CCC=C(c2ccc(F)cc2)[C@H]1COc1cc(F)c(S(=O)(=O)Nc2cscn2)cc1Cl.Cl
